In patent US9997714B2, “Hole transport material” (MERCK PATENT GMBH, priority 2013, dated 2018):
Where two headings read alike, the source gives them in different places.

Legend:
[1] = Hole mobility by impedance spectroscopy; format: physicochemical; settings: for Hole mobility: ITO/PEDOT-PSS/HTM(400 nm)/Au cell, dc field intensity 10^5V/cm, four cells
Method: The hole mobility of the inventive compound 2,2′,7,7′-tetrakis-(N,N′-di-4-methoxy-3-methylphenylamine)-9,9′-spirobifluorene is measured and the value is compared with those of the reference materials according to example 2 and example 3.
The structure of the measurement cell is ITO(200 nm)/PEDOT-PSS(150 nm)/HTM(400 nm)/Au(60 nm).
The measurement is carried out using four cells for each HTM by means of impedance spectroscopy. (Ref. 1. H. Martens et al., Phys. Rev. B, 60, R8489 (1999), Ref. 2. S. Ishihara, et al., Proc. of IDW'09, p 1085 (2009)). In the impedance measurement, a direct current (dc) voltage is applied to the test cell in order to inject holes from an anode. The hole mobility is determined under the dc field intensity of 10^5V/cm.

[2] = Qualitative solubility of the HTM in chlorobenzene (spin-coat solution); format: physicochemical; settings: for solubility compared with reference materials: in words; for solubility: organic solvent or mixture
Method: A solution for a spin-coat is prepared in a N2 glove box as follows: at first, 20 mg of a hole transport material is dissolved in 95 μL of chlorobenzene. The hole transport material needs to be dissolved completely. A mother solution of lithium bis(trifluorosulfonyl)imide (LiTFSI) and tert-butylpyridine (TBP) is prepared separately at room temperature and is added to the hole transporter solution to set the molar ratio to [hole transporter]:[LiTFSI]:[TBP]=10:1:10 at room temperature. Thus the final volume of the solution is 100 μL.
The solubility of the HTMs according to examples 1, 2 and 3 are evaluated qualitatively:
1 means: 20 mg of HTM is completely dissolved without heating
2 means: HTM is dissolved after heating to 80° C.
3 means: HTM is dissolved after adding salt and base solution and heating to 80° C.
4 means: HTM is dissolved after adding another 50 μL of chlorobenzene and heat to 80° C. (final folume 150 μl).

[3] = order of magnitude, background; cited from earlier work
[4] = 20 mg of HTM in 95 μL chlorobenzene completely dissolved without heating, read-out: solubility grade 1

COc1ccc(N(c2ccc(OC)c(C)c2)c2ccc3c(c2)C2(c4cc(N(c5ccc(OC)c(C)c5)c5ccc(OC)c(C)c5)ccc4-3)c3cc(N(c4ccc(OC)c(C)c4)c4ccc(OC)c(C)c4)ccc3-c3ccc(N(c4ccc(OC)c(C)c4)c4ccc(OC)c(C)c4)cc32)cc1C
hole mobility compared with reference example 3 ([1]; in words): more than one order of magnitude larger | hole mobility compared with spiro-OMeTAD ([1]; in words): larger than the hole mobility of spiro-OMeTAD

COc1ccc(N(c2ccc(OC)c(C)c2)c2ccc3c(c2)C2(c4cc(N(c5ccc(OC)c(C)c5)c5ccc(OC)c(C)c5)ccc4-3)c3cc(N(c4ccc(OC)c(C)c4)c4ccc(OC)c(C)c4)ccc3-c3ccc(N(c4ccc(OC)c(C)c4)c4ccc(OC)c(C)c4)cc32)cc1C [Example 1, 2,2′,7,7′-tetrakis-(N,N′-di-4-methoxy-3-methylphenylamine)-9,9′-spirobifluorene]
solubility grade 1 ([2]; 20 mg of HTM in 95 μL chlorobenzene completely dissolved without heating): ✓ | solubility compared with reference materials ([2]; listed as compound of formula (I)): better solubility than spiro-OMeTAD | solubility compared with reference materials ([2]; listed as hole transport material according to the invention): better solubility than the reference materials | Hole mobility [1]: 1.29E−04 cm^2/Vs

COc1ccc(N(c2ccc(OC)cc2)c2ccc3c(c2)C2(c4cc(N(c5ccc(OC)cc5)c5ccc(OC)cc5)ccc4-3)c3cc(N(c4ccc(OC)cc4)c4ccc(OC)cc4)ccc3-c3ccc(N(c4ccc(OC)cc4)c4ccc(OC)cc4)cc32)cc1 [Example 2, 2,2′,7,7′-tetrakis-(N,N′-di-4-methoxyphenylamine)-9,9′-spirobifluorene]
solubility grade 2 ([2]; HTM dissolved after heating to 80° C.): ✓ | solubility [2, 4]: < 210 mg/mL | Hole mobility [1]: 1.08E−04 cm^2/Vs | charge carrier mobility [3]: ~10^−4 cm^2/Vs

COc1c(C)cc(N(c2cc(C)c(OC)c(C)c2)c2ccc3c(c2)C2(c4cc(N(c5cc(C)c(OC)c(C)c5)c5cc(C)c(OC)c(C)c5)ccc4-3)c3cc(N(c4cc(C)c(OC)c(C)c4)c4cc(C)c(OC)c(C)c4)ccc3-c3ccc(N(c4cc(C)c(OC)c(C)c4)c4cc(C)c(OC)c(C)c4)cc32)cc1C [Example 3]
solubility grade 4 ([2]; HTM dissolved after adding another 50 μL of chlorobenzene and heat to 80° C., final volume 150 μl): ✓ | solubility ([2]; chlorobenzene with LiTFSI and tert-butylpyridine solution, HTM dissolved after adding salt and base solution and heating to 80° C., read-out: solubility grade 3): < 210 mg/mL | solubility ([2]; chlorobenzene, HTM dissolved after heating to 80° C., read-out: solubility grade 2): < 210 mg/mL | solubility [2, 4]: < 210 mg/mL | Hole mobility [1]: 9.34E−06 cm^2/Vs
